Laboratory results reported in ChEMBL document CHEMBL1201862, “PubChem BioAssay data set” (2004).
The source made the active and inactive calls.

Tests used:
[1] = target: T1, Tyrosine-protein phosphatase non-receptor type 7 (Homo sapiens, UniProt P35236); experiment: inhibitors of human HePTP phosphatase, […], biochemical, absorbance, leukemia target (AID 521); type: functional
T1 sequence (P35236 whole entry): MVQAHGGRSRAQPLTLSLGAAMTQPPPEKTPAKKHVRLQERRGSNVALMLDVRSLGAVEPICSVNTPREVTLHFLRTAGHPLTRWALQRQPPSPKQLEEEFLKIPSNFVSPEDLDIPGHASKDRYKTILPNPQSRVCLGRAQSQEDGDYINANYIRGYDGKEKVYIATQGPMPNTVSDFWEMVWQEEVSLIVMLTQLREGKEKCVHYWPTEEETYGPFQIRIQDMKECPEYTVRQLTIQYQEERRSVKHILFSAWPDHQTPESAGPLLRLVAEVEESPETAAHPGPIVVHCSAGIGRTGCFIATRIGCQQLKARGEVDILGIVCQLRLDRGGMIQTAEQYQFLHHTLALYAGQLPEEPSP

[2] = target: Sphingosine 1-phosphate receptor 2 (Homo sapiens, UniProt O95136); experiment: Dose Response Cell Based Assay for Agonists of the S1P2 Receptor. [Related pubchem assays: 729, 736, 843 ]; type: functional
[3] = test system: HEK293; experiment: HEK293T cell cytotoxicity, dose response, cytotoxicity control, ATP luminescence, cherry-pick samples (AID 687005); type: functional, cell-based; settings: Homo sapiens;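 also: cells exposed to compound for 48 hours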
[4] = HEK293 Cytotoxicity Assay Measured in Cell-Based System Using Plate Reader - 7071-01_Inhibitor_Dose_CherryPick_Activity_Set2.; type: functional
[5] = target: Large T antigen (Simian virus 40, UniProt P03070); type: functional, Betapolyomavirus macacae;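 also: Confirmatory-stage PubChem screen for compounds that inhibit SV40 T antigen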
[6] = target: Bifunctional protein GlmU (Mycobacterium tuberculosis, UniProt P9WMN3); experiment: Inhibitors of Mycobacterial Glucosamine-1-phosphate acetyl transferase (GlmU). Secondary screen.; set-up: species or system Mycobacterium tuberculosis H37Rv
Chain of Bifunctional protein GlmU (P9WMN3 whole entry): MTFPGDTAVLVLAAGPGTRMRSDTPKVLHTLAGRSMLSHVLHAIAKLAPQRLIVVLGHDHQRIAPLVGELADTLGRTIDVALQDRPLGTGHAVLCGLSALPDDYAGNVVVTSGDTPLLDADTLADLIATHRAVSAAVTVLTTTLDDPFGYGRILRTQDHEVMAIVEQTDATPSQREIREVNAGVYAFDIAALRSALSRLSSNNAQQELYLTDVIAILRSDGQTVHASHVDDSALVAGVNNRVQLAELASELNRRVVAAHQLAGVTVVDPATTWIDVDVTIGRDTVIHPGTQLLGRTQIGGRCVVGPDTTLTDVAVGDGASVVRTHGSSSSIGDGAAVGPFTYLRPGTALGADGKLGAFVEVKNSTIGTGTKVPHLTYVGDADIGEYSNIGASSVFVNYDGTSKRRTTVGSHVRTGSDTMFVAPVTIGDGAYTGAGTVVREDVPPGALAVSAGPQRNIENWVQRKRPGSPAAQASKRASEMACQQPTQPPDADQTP

[7] = target: 1-phosphatidylinositol 4,5-bisphosphate phosphodiesterase gamma-1 (Homo sapiens, UniProt P19174); experiment: Counterscreen for inhibitors of phospholipase C isozymes (PLC-B3): Fluorescence-based biochemical high throughput dose response assay to identify inhibitors of phospholipase C isozymes (PLC-gamma1).
[8] = target: 1-phosphatidylinositol 4,5-bisphosphate phosphodiesterase beta-3 (Homo sapiens, UniProt Q01970); experiment: Fluorescence-based biochemical high throughput dose response assay to identify inhibitors of phospholipase C isozymes (PLC-B3).
Chain of 1-phosphatidylinositol 4,5-bisphosphate phosphodiesterase beta-3 (Q01970 whole entry): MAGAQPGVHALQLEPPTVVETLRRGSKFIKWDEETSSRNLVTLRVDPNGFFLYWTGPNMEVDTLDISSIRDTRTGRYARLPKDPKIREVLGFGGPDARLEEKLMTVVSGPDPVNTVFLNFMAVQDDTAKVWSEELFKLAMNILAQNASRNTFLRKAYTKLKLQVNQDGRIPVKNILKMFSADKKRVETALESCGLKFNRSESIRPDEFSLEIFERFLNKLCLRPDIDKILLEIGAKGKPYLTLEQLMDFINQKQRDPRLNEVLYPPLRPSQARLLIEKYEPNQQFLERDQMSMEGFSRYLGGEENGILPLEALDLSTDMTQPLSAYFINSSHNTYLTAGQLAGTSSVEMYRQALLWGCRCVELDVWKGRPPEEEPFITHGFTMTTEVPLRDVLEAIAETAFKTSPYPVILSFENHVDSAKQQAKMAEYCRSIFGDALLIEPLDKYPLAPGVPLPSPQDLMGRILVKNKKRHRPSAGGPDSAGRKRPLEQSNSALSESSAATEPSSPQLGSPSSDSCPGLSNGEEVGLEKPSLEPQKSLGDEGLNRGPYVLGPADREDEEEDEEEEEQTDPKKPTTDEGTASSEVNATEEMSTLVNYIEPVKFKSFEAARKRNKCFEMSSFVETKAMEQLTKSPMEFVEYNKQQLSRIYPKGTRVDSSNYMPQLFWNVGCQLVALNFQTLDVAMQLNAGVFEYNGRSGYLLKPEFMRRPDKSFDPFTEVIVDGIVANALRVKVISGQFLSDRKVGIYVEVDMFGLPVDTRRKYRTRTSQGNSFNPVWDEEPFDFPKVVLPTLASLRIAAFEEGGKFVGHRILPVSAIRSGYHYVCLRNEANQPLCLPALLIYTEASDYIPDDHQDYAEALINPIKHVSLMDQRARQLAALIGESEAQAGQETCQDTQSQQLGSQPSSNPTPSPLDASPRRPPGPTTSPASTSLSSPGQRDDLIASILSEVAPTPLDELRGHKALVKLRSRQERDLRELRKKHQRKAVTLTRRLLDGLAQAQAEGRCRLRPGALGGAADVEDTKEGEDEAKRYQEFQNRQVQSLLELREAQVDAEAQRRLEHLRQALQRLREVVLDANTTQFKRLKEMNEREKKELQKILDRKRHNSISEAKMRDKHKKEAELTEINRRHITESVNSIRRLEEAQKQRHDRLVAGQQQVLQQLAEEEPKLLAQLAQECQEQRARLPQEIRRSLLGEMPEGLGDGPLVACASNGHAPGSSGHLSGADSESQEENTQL

[9] = target: E3 ubiquitin-protein ligase Mdm2 (Homo sapiens, UniProt Q00987); experiment: enhancers of MDM2-luciferase reporter signal, concentration-effect titration, project on inhibitors of MDM2 ubiquitin ligase, cellular assay, luminescent readout, 384-well plate format (AID 1394); type: functional;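 also: MDM2 E3 inhibitors raise luminescence so EC50 is for signal enhancement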
Chain of E3 ubiquitin-protein ligase Mdm2 (Q00987 whole entry): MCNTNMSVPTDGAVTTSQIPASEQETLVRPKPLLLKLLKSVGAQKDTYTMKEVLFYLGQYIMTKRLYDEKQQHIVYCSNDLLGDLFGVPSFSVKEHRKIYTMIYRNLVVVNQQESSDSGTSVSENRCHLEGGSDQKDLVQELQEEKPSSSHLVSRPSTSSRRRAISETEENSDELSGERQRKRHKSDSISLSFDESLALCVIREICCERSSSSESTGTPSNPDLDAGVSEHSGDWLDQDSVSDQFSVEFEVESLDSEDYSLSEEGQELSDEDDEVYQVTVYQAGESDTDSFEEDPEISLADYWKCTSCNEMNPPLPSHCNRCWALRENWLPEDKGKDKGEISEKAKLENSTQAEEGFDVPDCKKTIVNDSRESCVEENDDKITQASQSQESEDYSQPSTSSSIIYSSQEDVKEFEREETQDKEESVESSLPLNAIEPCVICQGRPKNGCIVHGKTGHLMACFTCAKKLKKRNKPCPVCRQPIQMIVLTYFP

[10] = test system: Streptococcus sp. 'group A'; experiment: growth inhibition of control SK(-) GAS strain, dose response, counter-screen for streptokinase expression inhibitor project, luminescence, kanamycin, BacTiterGlo, confirmation (AID 1900); type: functional, organism-based
[11] = target: T2, Streptokinase A (Streptococcus pyogenes serotype M1, UniProt P10520); experiment: S. pyogenes streptokinase expression inhibitors, potency, dose response, plasminogen activation absorbance, OD405 (AID 1914); type: functional, Streptococcus pyogenes M1 GAS;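 also: secreted streptokinase activity via plasminogen activation per viability signal from cell pellet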
T2 sequence (P10520 whole entry): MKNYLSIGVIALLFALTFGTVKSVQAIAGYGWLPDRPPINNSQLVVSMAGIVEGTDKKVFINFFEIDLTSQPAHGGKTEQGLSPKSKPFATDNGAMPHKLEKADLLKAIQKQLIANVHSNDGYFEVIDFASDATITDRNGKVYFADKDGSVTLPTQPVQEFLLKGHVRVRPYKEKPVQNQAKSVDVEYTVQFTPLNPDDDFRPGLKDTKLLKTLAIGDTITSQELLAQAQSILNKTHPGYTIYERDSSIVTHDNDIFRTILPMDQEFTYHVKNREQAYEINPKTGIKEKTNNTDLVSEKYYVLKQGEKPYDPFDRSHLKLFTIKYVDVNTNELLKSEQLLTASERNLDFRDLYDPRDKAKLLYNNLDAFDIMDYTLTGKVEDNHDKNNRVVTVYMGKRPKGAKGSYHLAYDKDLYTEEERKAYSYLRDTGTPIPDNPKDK

[12] = test system: Streptococcus; experiment: Group A Streptococcus viability loss, dose response, counter-screen for streptokinase expression inhibitor project, luminescence, BacTiterGlo (AID 1915); type: functional, organism-based;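 also: potency for reduction of bacterial viability or growth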
[13] = test system: H9c2; experiment: cells; type: functional, cell-based; settings: Rattus norvegicus, H9c2, Myocardium;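 also: confirmatory concentration-response retest of ultra-high-throughput screening hits for modulation of myocardial damage; cell death induced by hydrogen peroxide oxidative stress; compound pretreatment for 60 min then peroxide exposure for 2 h; potency is for protecting the cells against peroxide damage rather than for killing them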
[14] = target: Transthyretin (Homo sapiens, UniProt P02766); experiment: Luminescence-based cell-based high throughput dose response assay to identify activators of Transthyretin (TTR) transcription.; type: functional
[15] = target: T3, Methionyl-tRNA synthetase, putative (Trypanosoma brucei brucei, UniProt Q38C91); type: functional, Trypanosoma brucei brucei strain 927/4 GUTat10.1
T3 sequence (Q38C91 whole entry): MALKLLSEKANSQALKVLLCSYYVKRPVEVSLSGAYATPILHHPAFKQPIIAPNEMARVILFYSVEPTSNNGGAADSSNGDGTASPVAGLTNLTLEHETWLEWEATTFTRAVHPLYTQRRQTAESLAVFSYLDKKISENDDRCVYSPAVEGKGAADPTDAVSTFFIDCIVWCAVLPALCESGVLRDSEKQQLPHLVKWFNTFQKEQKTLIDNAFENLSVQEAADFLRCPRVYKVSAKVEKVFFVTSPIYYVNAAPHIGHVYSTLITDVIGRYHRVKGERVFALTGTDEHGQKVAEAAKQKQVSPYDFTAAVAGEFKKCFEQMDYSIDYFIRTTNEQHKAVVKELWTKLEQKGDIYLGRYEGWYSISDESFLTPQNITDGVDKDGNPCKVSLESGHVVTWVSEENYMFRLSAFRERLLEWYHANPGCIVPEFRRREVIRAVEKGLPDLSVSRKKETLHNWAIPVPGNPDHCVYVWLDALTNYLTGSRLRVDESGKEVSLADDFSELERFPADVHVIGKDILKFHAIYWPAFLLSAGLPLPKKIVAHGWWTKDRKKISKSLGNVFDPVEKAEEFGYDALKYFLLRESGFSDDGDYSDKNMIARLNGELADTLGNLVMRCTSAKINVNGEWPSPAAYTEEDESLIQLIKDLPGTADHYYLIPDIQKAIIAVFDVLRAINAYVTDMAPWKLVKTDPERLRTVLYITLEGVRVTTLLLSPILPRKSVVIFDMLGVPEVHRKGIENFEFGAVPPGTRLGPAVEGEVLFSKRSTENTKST

[16] = Counterscreen for inhibitors of Trypanosoma brucei methionyl tRNA synthetase (MetRS): Luminescence-based cell-based high throughput dose response assay to identify compounds that are cytotoxic to Jurkat human T lymphocyte cells.; type: functional
[17] = target: T3, Methionyl-tRNA synthetase, putative; type: functional, Trypanosoma brucei brucei strain 927/4 GUTat10.1; remark: listed apart in the source
[18] = Late stage counterscreen for inhibitors of Trypanosoma brucei methionyl tRNA synthetase (MetRS): Luminescence-based cell-based high throughput dose response assay to identify compounds that are cytotoxic to Jurkat human T lymphocyte cells.; type: functional
[19] = target: Beta-galactosidase (Escherichia coli, UniProt Q8VNN2); experiment: Dose response counterscreen for EBI2 assay utilizing the enzyme, b-galactosidase.; type: functional
[20] = target: G-protein coupled receptor 183 (Homo sapiens, UniProt P32249); experiment: SAR confirmation of small molecule antagonists of the EBI2 receptor via a luminescent beta-arrestin assa.; type: functional
Chain of G-protein coupled receptor 183 (P32249 whole entry): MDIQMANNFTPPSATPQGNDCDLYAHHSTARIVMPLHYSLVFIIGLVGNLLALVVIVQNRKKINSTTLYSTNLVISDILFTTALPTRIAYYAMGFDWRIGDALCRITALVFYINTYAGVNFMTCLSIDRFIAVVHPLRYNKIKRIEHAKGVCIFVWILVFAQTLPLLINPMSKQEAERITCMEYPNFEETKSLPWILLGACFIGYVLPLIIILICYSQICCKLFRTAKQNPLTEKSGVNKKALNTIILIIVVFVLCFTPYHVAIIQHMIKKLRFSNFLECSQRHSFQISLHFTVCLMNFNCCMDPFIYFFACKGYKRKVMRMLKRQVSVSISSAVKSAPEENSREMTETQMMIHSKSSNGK

[21] = target: Paired box protein Pax-8 (Homo sapiens, UniProt Q06710); experiment: inhibitors of PAX8-driven TPO luciferase reporter, dose response, RMG-I cells, cherry-pick (AID 687027); type: functional, cell-based;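 also: luciferase reporter driven by Pax8 target thyroperoxidase promoter measured by SteadyGlo luminescence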
Chain of Paired box protein Pax-8 (Q06710 whole entry): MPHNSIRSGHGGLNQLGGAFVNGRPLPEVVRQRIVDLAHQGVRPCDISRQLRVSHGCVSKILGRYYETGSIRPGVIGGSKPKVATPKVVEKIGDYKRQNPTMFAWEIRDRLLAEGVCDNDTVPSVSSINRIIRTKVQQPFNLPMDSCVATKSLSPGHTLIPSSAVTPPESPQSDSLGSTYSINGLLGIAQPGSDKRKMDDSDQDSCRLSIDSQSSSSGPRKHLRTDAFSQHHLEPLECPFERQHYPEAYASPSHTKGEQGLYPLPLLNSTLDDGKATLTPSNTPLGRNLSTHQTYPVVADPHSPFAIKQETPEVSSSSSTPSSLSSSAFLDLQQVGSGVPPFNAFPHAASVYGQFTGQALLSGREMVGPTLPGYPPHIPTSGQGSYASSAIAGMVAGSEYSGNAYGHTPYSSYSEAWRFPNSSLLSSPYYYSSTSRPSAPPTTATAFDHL

[22] = IOSE-T80 ovarian epithelial cell cytotoxicity, dose response, cytotoxicity control for PAX8 inhibitor project, plate reader, dry powder samples (AID 743045); type: functional, cell-based
[23] = A2780 ovarian cancer cell cytotoxicity, dose response, cytotoxicity control, plate reader, dry powder samples (AID 743046); type: functional, cell-based
[24] = NIH:OVCAR-3 ovarian cancer cell cytotoxicity, dose response, PAX8 inhibitor project, plate reader, dry powder samples (AID 743044); type: functional, cell-based
[25] = IGROV1 ovarian cancer cell cytotoxicity, dose response, PAX8 inhibitor project, plate reader, dry powder samples (AID 743043); type: functional, cell-based; settings: IGROV-1
[26] = Late-stage results from the probe development effort to identify antagonists of arginine vasopressin receptor 1a (AVPR1a): fluorescence-based cell-based dose response AVPR1a inhibition assay.; type: functional
[27] = target: Vasopressin V1b receptor (Homo sapiens, UniProt P47901); experiment: Late-stage results from the probe development effort to identify antagonists of arginine vasopressin receptor 1a (AVPR1a): fluorescence-based cell-based dose response AVPR1b inhibition counterscreen assay.; type: functional
[28] = target: Vasopressin V2 receptor (Homo sapiens, UniProt P30518); experiment: Late-stage results from the probe development effort to identify antagonists of arginine vasopressin receptor 1a (AVPR1a): fluorescence-based cell-based dose response AVPR2 inhibition counterscreen assay.; type: functional
Chain of Vasopressin V2 receptor (P30518 whole entry): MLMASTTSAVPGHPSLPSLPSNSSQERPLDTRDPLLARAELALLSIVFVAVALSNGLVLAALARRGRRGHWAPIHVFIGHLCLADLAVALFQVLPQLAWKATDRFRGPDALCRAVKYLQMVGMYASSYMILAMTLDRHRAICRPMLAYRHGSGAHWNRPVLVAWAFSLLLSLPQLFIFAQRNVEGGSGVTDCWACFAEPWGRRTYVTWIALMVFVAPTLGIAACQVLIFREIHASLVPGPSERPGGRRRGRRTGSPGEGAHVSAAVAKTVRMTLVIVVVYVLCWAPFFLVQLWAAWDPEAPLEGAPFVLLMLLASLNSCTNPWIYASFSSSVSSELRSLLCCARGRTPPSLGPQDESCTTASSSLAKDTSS

[29] = Late-stage results from the probe development effort to identify antagonists of arginine vasopressin receptor 1a (AVPR1a): fluorescence-based cell-based dose response OXTR inhibition counterscreen assay.; type: functional
[30] = target: Endoplasmic reticulum aminopeptidase 2 (Homo sapiens, UniProt Q6P179); experiment: ERAP2 aminopeptidase inhibitors, dose response, selectivity assay for selective ERAP1 modulator project, biochemical, fluorescence plate reader, cherry-picked, set 2 (AID 743320)
[31] = target: Endoplasmic reticulum aminopeptidase 1 (Homo sapiens, UniProt Q9NZ08); experiment: ERAP1 aminopeptidase inhibitors, dose response, biochemical, cherry-pick, set 2, plate reader (AID 743314)
[32] = target: Metabotropic glutamate receptor 5 (Rattus norvegicus, UniProt P31424); experiment: Identification of a glycine sulfonamide based non-MPEP site positive allosteric potentiator (PAM) of mGlu5 (calcium_assay).; type: functional
[33] = target: T4, Oxysterols receptor LXR-beta (Homo sapiens, UniProt P55055); type: functional, cell-based;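 also: Cell-based luminescence dose-response assay of agonist activity at LXR, run as a confirmatory counterscreen to a daf-12 agonist screen; HEK293 cells with Gal4-LXR fusion and GAL4-driven luciferase reporter; agonist potency from rising luciferase signal of a Gal4-LXR reporter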
T4 sequence (P55055 whole entry): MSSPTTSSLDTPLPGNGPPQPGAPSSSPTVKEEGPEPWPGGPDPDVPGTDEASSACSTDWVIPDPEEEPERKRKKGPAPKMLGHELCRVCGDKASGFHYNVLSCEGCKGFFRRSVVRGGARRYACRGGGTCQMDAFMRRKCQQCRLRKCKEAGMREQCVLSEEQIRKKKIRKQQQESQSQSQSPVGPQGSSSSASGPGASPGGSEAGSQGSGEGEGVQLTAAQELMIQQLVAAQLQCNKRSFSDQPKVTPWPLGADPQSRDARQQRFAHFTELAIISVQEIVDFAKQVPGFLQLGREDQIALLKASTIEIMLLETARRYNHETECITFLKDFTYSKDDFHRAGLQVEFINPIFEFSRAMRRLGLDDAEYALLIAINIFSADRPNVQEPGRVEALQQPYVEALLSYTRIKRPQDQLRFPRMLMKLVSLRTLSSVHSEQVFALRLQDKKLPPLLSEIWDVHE

[34] = cells
[35] = Dose-response inhibition of insulin secretion in a rat insulinoma line at 5 mM glucose (AID 1117331); type: functional, cell-based; settings: INS-1E
[36] = cells; type: functional, cell-based; settings: INS-1E
[37] = target: T5, Bcl-2-related protein A1 (Mus musculus, UniProt Q07440); experiment: Bfl-1 inhibitors, primary screen, biochemical, fluorescence polarization, FITC-Bid, mouse (AID 432)
T5 sequence (Q07440 whole entry): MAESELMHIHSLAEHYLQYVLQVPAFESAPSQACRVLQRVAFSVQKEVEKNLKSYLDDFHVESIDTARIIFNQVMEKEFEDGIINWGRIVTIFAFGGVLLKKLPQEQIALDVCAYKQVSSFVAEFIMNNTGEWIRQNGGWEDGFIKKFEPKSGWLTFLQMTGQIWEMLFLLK

[38] = target: T5, Bcl-2-related protein A1; experiment: Bfl-1 inhibitors blocking BH3 peptide binding, confirmation, biochemical, TR-FRET, mouse Bfl-1 (AID 621);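 also: TR-FRET binding of GST-Bfl-1 to FITC-labelled Bid peptide via terbium antibody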
[39] = target: T6, Polyadenylate-binding protein 1 (Homo sapiens, UniProt P11940); experiment: PABP1 MLLE–PAM2 interaction inhibitors, dose response, miRNA deadenylation inhibitor project, biochemical, fluorescence polarization, Cy5-PAM2 peptide, secondary (AID 602260); type: functional; settings: read-out: IC50_Mean
T6 sequence (P11940 whole entry): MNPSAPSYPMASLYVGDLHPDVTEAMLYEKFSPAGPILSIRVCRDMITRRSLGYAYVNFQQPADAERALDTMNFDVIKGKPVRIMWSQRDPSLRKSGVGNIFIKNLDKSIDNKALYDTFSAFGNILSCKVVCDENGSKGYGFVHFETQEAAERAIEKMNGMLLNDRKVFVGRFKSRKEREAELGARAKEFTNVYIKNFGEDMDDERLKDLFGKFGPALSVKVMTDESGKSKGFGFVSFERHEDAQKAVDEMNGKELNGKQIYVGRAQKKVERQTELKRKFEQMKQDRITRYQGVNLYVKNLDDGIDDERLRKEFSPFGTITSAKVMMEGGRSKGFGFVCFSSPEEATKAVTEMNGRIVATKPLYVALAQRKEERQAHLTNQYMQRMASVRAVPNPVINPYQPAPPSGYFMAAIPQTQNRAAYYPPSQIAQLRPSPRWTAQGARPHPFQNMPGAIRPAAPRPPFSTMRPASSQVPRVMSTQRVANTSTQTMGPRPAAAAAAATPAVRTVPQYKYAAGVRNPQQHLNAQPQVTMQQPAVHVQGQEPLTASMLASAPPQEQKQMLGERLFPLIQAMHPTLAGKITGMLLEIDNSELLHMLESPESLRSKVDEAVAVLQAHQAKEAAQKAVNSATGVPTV

[40] = target: T6, Polyadenylate-binding protein 1; experiment: PABP1 MLLE–PAM2 binding inhibitor potency, dose response, biochemical, fluorescence polarization, FITC-PAM2 peptide (AID 602259); type: functional; settings: read-out: IC50_Mean

SMILES: Cc1ccc(-n2nnc3c(=O)n(CC(=O)NCc4ccco4)cnc32)cc1
- IC50 [1]: > 100 µM (not active)

SMILES: COc1cc2c(cc1OC)C1=C(C#N)CCC(=O)N1CC2
- EC50 [2]: 1.33 µM (active)

SMILES: COc1ccc(-n2cc(CNCCc3nc(C)cc(C)n3)c(-c3ccccc3Cl)n2)cc1
- AC50 [3]: 11.4 µM (active)
- AC50 [4]: 11.4 µM (active)

SMILES: COc1ccc(/C=C2/C(=O)NC(=O)N(Cc3ccco3)C2=O)cc1
- IC50 [5]: 23.5 µM (active)
- IC50 [6]: 1.79 µM (active)

SMILES: NC(=O)CC(NC(=O)Cc1cccc2ccccc12)c1ccc(N2CCCCCC2)c([N+](=O)[O-])c1 (stereo not given)
- IC50 [7]: > 122 µM (inactive)
- IC50 [8]: > 122 µM (inactive)

SMILES: Cc1ccc(-c2nc3ccccc3c(=O)n2-c2cccnc2)cc1
- EC50 [9]: 54.5 µM (not active)

SMILES: CCCNC(=O)c1ccc(N2CCC3(CC2)CC(c2ccccc2)=NO3)c(NC(=O)c2ccco2)c1
- EC50 [10]: 15.7 µM (active)
- EC50 [11]: > 150 µM (not active)
- EC50 [12]: 38.2 µM (active)
- IC50 [13]: 31 µM (inactive)
- EC50 [14]: > 167 µM (inactive)

SMILES: Clc1ccc(-c2nnc(SCc3nc4ccccc4[nH]3)o2)c(Cl)c1
- IC50 [15]: 0.802 µM (active)
- IC50 [16]: 83.3 µM (inactive)
- IC50 [17]: 0.401 µM (active)
- IC50 [18]: > 83.3 µM (inactive)

SMILES: O=C(/C=C/c1ccc(Br)cc1)N1CCN(Cc2ccccc2)CC1
- IC50 [19]: > 80 µM (inactive)
- IC50 [20]: 0.0028 µM (active)

SMILES: C[C@H](CO)N1C[C@H](C)[C@H](CN(C)Cc2ccccc2)OCCCC[C@H](C)Oc2ccc(NC(=O)Nc3ccc(C(F)(F)F)cc3)cc2C1=O
- AC50 [21]: 4.95 µM (active)
- AC50 [22]: 50 µM (active)
- AC50 [23]: 41.4 µM (active)
- AC50 [24]: 17.6 µM (active)
- AC50 [25]: 26.9 µM (active)

SMILES: COc1cccc(N(CC2CC2)C(=O)N2CCN(c3ccccc3C)CC2)c1
- IC50 [26]: 0.057 µM (active)
- IC50 [27]: 12.4 µM (inactive)
- IC50 [28]: 20.6 µM (inactive)
- IC50 [29]: 20.6 µM (inactive)

SMILES: CC(C)[C@@H](C(=O)N[C@@H](CCc1ccc(O)cc1)C(=O)O)N(C)C(=O)[C@H](CO)NC(=O)[C@@H](O)[C@H](N)CCCCCCCCl
- AC50 [30]: 1.47 µM (active)
- AC50 [31]: 0.682 µM (active)

SMILES: CC(C)(C)NC(=O)CN(c1ccccc1Cl)S(C)(=O)=O
- EC50 [32]: > 30 µM (inactive)

SMILES: COc1ccc(C(=O)/N=c2\sc3ccccc3n2C)cc1
- EC50 [33]: > 67.5 µM (inactive)
- EC50 [34]: > 67.5 µM (inactive)

SMILES: O=C(NN1CCCC1)NS(=O)(=O)c1ccc(Cl)cc1 [GLYCLOPYRAMIDE]
- IC50 [35]: 14.9 µM (inactive)
- IC50 [36]: > 33.3 µM (inactive)

SMILES: NC(=O)N1c2ccccc2CC(=O)c2ccccc21 [OXCARBAZEPINE]
- IC50 [37]: > 100 µM (not active)
- IC50 [38]: > 100 µM (not active)
- IC50 [39]: > 66 µM (inactive)
- IC50 [40]: 28.1 µM (inactive)
